Test results taken from patent publication US20110251158A1, “FULLERENE THERAPIES FOR INFLAMMATION AND INHIBITION OF BUILD-UP OF ARTERIAL PLAQUE” (Luna Innovations Incorporated, priority 2008, published 2011).

Tests used:
ROS = experiment: FcεRI-induced ROS (DCF) in MC; assay type: cell-based, human; conditions: 10 μg/mL overnight; anti-FcεRI 1 μg/mL
Procedure: MC were pre-treated with or without fullerene derivatives as above, washed with Tyrodes buffer supplemented with BSA, and incubated with Fura-2 AM (2 μM) for 30 minutes at 37° C. Cells were washed, stimulated with anti-FcεRI, and calcium flux measured in real time on a Perkin Elmer LS55 Spectrofluorometer. For ROS production, cells were exposed to fullerene derivatives as above. After washing, cells were re-suspended in X-Vivo medium containing 5 μM dichlorodihydrofluorescein (DCF) at 37° C. for 30 minutes, washed, and activation-induced changes in mean fluorescence was measured with excitation at 502 nm and emission at 523 nm for 15 minutes (19). The data is presented as fluorescence intensity of the 523 nm emission over time. All experiments were performed in triplicate and degranulation was measured in parallel.
Cells were incubated with or without fullerene derivative (10 μg/mL) overnight. The next day cells were challenged with anti-FcεRI (3B4; 1 μg/mL) and calcium stores release was determined by the 340/380 nm ratio (FIGS. 11A and 11B) and ROS measured by DCF detection at 523 nm (FIGS. 11C and 11D). FIGS. 11A and 11C contain cells incubated with the TGA fullerene derivative, and FIGS. 11B and 11D contain cells incubated with the Inos fullerene derivative (10 μg/mL). […]

AKT phosphorylation = experiment: Western blotting of FcεRI-activated phospho-signaling in MC: AKT; assay type: cell-based, human; conditions: 10 μg/mL overnight
Procedure: (§1) Cell lysate preparation and Western blotting were performed using a protocol optimized for extracting phospho-proteins from human MC. Tkaczyk, C., Metcalfe, D. D., and Gilfillan, A. M. J. Immunol. Methods 268, 239-243 (2002). Following activation, cells were lysed directly in boiling denaturing sample buffer consisting of tris-buffered saline with triton-X-100 (0.5%) and protease and phosphatase inhibitors. The cell suspension was then passed through a 20-gauge needle, boiled, and centrifuged to remove cell debris. Proteins were separated on 8% or 10% NuPage Tris-Bis gels using Licor running buffer. Western blotting was performed using Licor blocking buffer and IR800 and IR700 anti-rabbit F(ab)2 secondary Abs (1:1000). Primary Abs were from Cell Signaling Technologies or Santa Cruz unless otherwise noted. Band intensities were captured using the Odyssey Imaging System and bands quantified by measuring the number of pixels in each band using a box drawn for the same area of measurement for each separate blot. The band intensity was then normalized for loading by dividing the number of pixels in each band with the housekeeping band intensity (β-actin) performed on the same blot.
(§2) MC were pretreated with Inos or TGA (10 μg/mL) overnight at 37° C./6% CO2. The next day washed cells were activated with or without anti-FcεRI (1 μg/mL) for the indicated times and lysed using protocols described above. Two separate 10% Tris-Glycine gels were used for sodium dodecyl sulfate polyacrylamide gel electrophoresis (SDS-PAGE) and Western blotting performed with the indicated phosphorylation-specific (i.e., phosph-Lyn) antibodies. To ensure equal loading, an antiactin antibody was used in parallel. The intensity of each band was detected and quantified using an Odyssey imaging system. Band intensities are presented as a ratio compared to antiactin band intensities probed in the same lane and presented for each time point in the colored graphs on the right side. Results are representative of three separate experiments. […]

LAT phosphorylation = experiment: Western blotting of FcεRI-activated phospho-signaling in MC: LAT; assay type: cell-based, human; conditions: 10 μg/mL overnight
Procedure: as §1, §2

Lyn = Lyn gene (microarray) and protein (Western blotting) expression in MC; assay type: cell-based, human
Procedure: Mast cells (1×10^7 cell/condition; each condition performed in triplicate) were incubated with or without fullerene derivatives as above and incubated with or without anti-FcεRI antibodies for 10 minutes, supernatants were removed (to remove pre-formed mediators), […] Cells were centrifuged, the supernatant and the pellet immediately frozen and microarray performed using the Human Whole Genome OneArray™ gene expression profiling service (Phalanx Biotech Group). Separate samples, assayed in parallel were lysed and protein expression analyzed by Western blotting or flow cytometry (CD45) as described in Kepley, C. L., Pfeiffer, J., Wilson, B. W., Schwartz, L. B., and Oliver, J. M. J. Leukocyte Biol. 64, 474-483 (1998).
In order to examine the genes most affected by fullerene derivative preincubation the resulting values were sorted and filtered the following way. First, the mean (±SD) of the six values from each condition for each of the 30,970 genes was calculated. Second, only normalized value intensities of >100 were included so that follow up detection of protein levels would be more likely to be successful. […]

Fyn = Fyn protein level in MC; assay type: cell-based, human; conditions: pre-incubated with TGA
Procedure: Mast cells (1×10^7 cell/condition; each condition performed in triplicate) were incubated with or without fullerene derivatives as above and incubated with or without anti-FcεRI antibodies for 10 minutes, supernatants were removed (to remove pre-formed mediators), and fresh warm medium containing anti-FcεRI antibodies (14 ml) added for 2 hours. Cells were centrifuged, the supernatant and the pellet immediately frozen and microarray performed using the Human Whole Genome OneArray™ gene expression profiling service (Phalanx Biotech Group). Separate samples, assayed in parallel were lysed and protein expression analyzed by Western blotting or flow cytometry (CD45) as described in Kepley, C. L., Pfeiffer, J., Wilson, B. W., Schwartz, L. B., and Oliver, J. M. J. Leukocyte Biol. 64, 474-483 (1998).
Downregulation observed at the gene level was verified at the protein level for several representative molecules using Western blotting or flow cytometry.

MC-induced anaphylaxis = experiment: MC-dependent anaphylaxis model: core body temperature; assay type: in vivo, mice (C57BL/6J); conditions: 100 ng i.p. before DNP-BSA challenge

## C70-tetraglycolic acid [TGA]
ROS
  FcεRI-induced ROS: inhibited
AKT phosphorylation; 3 minutes anti-FcεRI
  inhibited AKT phosphorylation: 10%
AKT phosphorylation; 5 minutes anti-FcεRI
  inhibited AKT phosphorylation: 36%
AKT phosphorylation; 10 minutes anti-FcεRI
  inhibited AKT phosphorylation: 43%
LAT phosphorylation; 3 minutes
  reduced LAT phosphorylation: 36%
LAT phosphorylation; 5 minutes
  reduced LAT phosphorylation: 72%
LAT phosphorylation; 10 minutes
  reduced LAT phosphorylation: 69%
Lyn; at 2 hours
  Lyn gene expression levels reduced: 51%
Lyn; at 6 hours
  Lyn inhibition at the protein level: 92%
Fyn
  Fyn protein levels: no change
MC-induced anaphylaxis
  anaphylactic-induced drop in core body temperature: significant reduction
